System: different cancer cell lines
Assay: in vitro testing for anticancer activity
Type: cell-based
Description: The isolation of brevifoliol from leaves of the plant Taxus wallichiana is also reported in S. K. Chattopadhyay et al Indian J. Chemistry 35B, 175-177(1996) as part of studies on the isolation of anticancer compounds. The process of this disclosure involved extracting the dried and crushed needles of Taxus wallichiana with methanol for 72 hours and the extract was concentrated in vacuo. The concentrate was diluted with water and extracted with hexane and chloroform respectively. Concentration of the chloroform phase under vacuum left a residue which was separated by column chromatography over silica gel. Fraction eluted with chloroform-methanol (98:5) contained brevifoliol which was further purified by re-chromatography over silica gel and eluted with chloroform-methanol (99:2). Fractions containing brevifoliol were combined and concentrated and recrystallized from pet-ether and ethyl acetate mixture to get brevifoliol as needles. […] The detection of anticancer activity in brevifoliol prompted the present investigators to develop an efficient processing technology for isolation of the compound in large quantities from the needles of the plant for further biological testing.

Q: For `C=C1C2C[C@]3(C(C)(C)O)CC(O)C(C)=C3[C@@H](OC(=O)c3ccccc3)[C@H](OC(C)=O)[C@]2(C)[C@@H](OC(C)=O)C[C@@H]1O` (stereo partly shown) [brevifoliol], which anticancer activity is on record?
A: significant anticancer activity

Reference: patent publication US7579491B2, “Process for preparing brevifoliol” (Council of Scientific and Industrial Research, priority 2002, dated 2009)
